Reference: patent US20160346249A1 (priority 2012, published 2016)
“And” between values parts separate entries of the source, which are not always exact repeats. Identical values can stand only once.

Test: Single dose 300 mg / 450 mg pharmacokinetic, safety and tolerability study in healthy male and female subjects
Conditions: for concentration at 2 h / concentration at 3 h / concentration at 4 h / concentration at 6 h / concentration at 8 h / concentration at 10 h / concentration at 12 h / concentration at 18 h / concentration at 24 h / concentration at […] / half-life / AUC(0-t) / Cmax / Tmax / concentration at 0 h / concentration at 0.5 h / concentration at 1 h: plasma, po; for Percent of Dose in Urine (0-24 hr) / Ratio DOV 216,298/DOV 21,947 in urine (0-24 hr): Mean (SD)
[1] = single oral 300 mg DOV 21,947 HCl IR
[2] = single oral 450 mg DOV 21,947 HCl IR

Text: Fourteen subjects, divided equally between males and females, were enrolled in the study and randomized between test article (5/sex) and placebo (2/sex). […] All subjects met the inclusion and exclusion criteria for entry into the study as detailed in the protocol and signed an informed consent form.
The subjects were confined to the clinical study site from Day −1 to the morning of Day 2, when they underwent a brief physical examination, clinical laboratory tests, and a physician visit before they were discharged. On Day 7, they reported to the clinical site again and were confined to the site until the morning of Day 9. At that time, they underwent a complete physical examination, clinical laboratory tests, and a physician's visit before they were discharged from the study. All subjects were fasted overnight on Days −1 and 7 from approximately 22:00 to approximately 4 hours post-dose on Days 1 and 8, at which time they received a standard lunch.
Subjects that received the placebo (2/sex) ingested six identical looking capsules with no drug. […] Capsules on both days were ingested with 240 mL water. […] Samples were collected into lithium heparin-containing Vacutainers® and centrifuged at approximately 3000 rpm to obtain the plasma fraction. The plasma was split into two polypropylene tubes and stored at −20° C. […] The urine volumes were recorded and an aliquot was stored for drug concentration measurements.
Validated LC/MS/MS assays were used for analyses; the assay range for both analytes in plasma and urine were 5.00 to 2000 ng/mL.
Plasma concentration-time data for each subject were analyzed with WinNonlin, version 4.1 (Pharsight Corporation, Mountain View, Calif.) using a non-compartmental model. […] Plasma concentrations listed as not detected (ND) or below the lower limit of quantitation (LLOQ) were set to zero. The values of Cmax and Tmax were the observed values for each subject. AUC0-t was determined using the linear trapezoidal rule whenever the concentration data were increasing and the logarithmic trapezoidal rule any time that the concentration data were decreasing. The apparent λz was calculated as the negative slope of the log-linear terminal portion of the blood concentration-time curve using linear regression. To allow for accurate calculation of λz, a minimum of three observations, selected by WinNonlin, was used. The t½ was calculated as ln 2/λz. AUC0-t was extrapolated to infinity (AUC0-∞) as follows: AUC0-∞=AUC0-t+Clast/λz where Clast is the last quantifiable concentration. The apparent oral clearance (CL/F) was calculated as Dose/AUC0-∞. The apparent oral volume of distribution (Vz/F) was calculated as Dose/λz×AUC0-∞. The mean residence time from time zero to infinity (MRT0-∞) was calculated as AUMC0-∞/AUC0-∞.

Compound: O=C1NCC2(c3ccc(Cl)c(Cl)c3)CC12 (stereo not shown) [EB-10101, 5-(3,4-dichloro-phenyl)-3-aza-bicyclo[3.1.0]hexan-2-one]
- concentration at 2 h (female, human, 450 mg): 1030 ng/mL
- concentration at 3 h (female, human, 450 mg): 1650 ng/mL
- concentration at 4 h (female, human, 450 mg): 2180 ng/mL
- concentration at 6 h (female, human, 450 mg): 2710 ng/mL
- concentration at 8 h (female, human, 450 mg): 2990 ng/mL
- concentration at 10 h (female, human, 450 mg): 3030 ng/mL
- concentration at 12 h (female, human, 450 mg): 2930 ng/mL
- concentration at 18 h (female, human, 450 mg): 2140 ng/mL
- concentration at 24 h (female, human, 450 mg): 2390 ng/mL
- concentration at […] (female, human, 450 mg): 0 ng/mL and 155 ng/mL and 539 ng/mL and 660 ng/mL
- half-life (female, human, 450 mg, t½ (Harmonic mean), single oral 450 mg DOV 21,947 HCl IR, N = 5): 24.5 h
- half-life (female, human, 450 mg, t½, single oral 450 mg DOV 21,947 HCl IR, N = 5, arithmetic mean): 41.8 h
- exposure to lactam greater than parent drug over 24 hr (human, in vivo): approximately 70%
- AUC(0-t) (male, human, 300 mg): 29200 ng·h/mL
- Cmax (male, human, 300 mg): 1740 ng/mL
- Tmax (male, human, 300 mg): 6.4 h
- concentration at 0 h (male, human, 300 mg): 0 ng/mL
- concentration at 0.5 h (male, human, 300 mg): 62.9 ng/mL
- concentration at 1 h (male, human, 300 mg): 404 ng/mL
- concentration at 2 h (male, human, 300 mg): 1040 ng/mL
- concentration at 3 h (male, human, 300 mg): 1490 ng/mL
- concentration at 4 h (male, human, 300 mg): 1470 ng/mL
- concentration at 6 h (male, human, 300 mg): 1520 ng/mL
- concentration at 8 h (male, human, 300 mg): 1590 ng/mL
- concentration at 10 h (male, human, 300 mg): 1670 ng/mL
- concentration at 12 h (male, human, 300 mg): 1410 ng/mL
- concentration at 18 h (male, human, 300 mg): 1100 ng/mL
- concentration at 24 h (male, human, 300 mg): 820 ng/mL
- concentration at […] (male, human, 300 mg): 3.03 ng/mL and 238 ng/mL and 629 ng/mL and 753 ng/mL
- half-life (male, human, 300 mg, t½ (Harmonic mean), single oral 300 mg DOV 21,947 HCl IR, N = 5): 13.7 h
- half-life (male, human, 300 mg, t½, single oral 300 mg DOV 21,947 HCl IR, N = 5, arithmetic mean): 15.3 h
- AUC(0-t) (male, human, 450 mg): 46100 ng·h/mL
- Cmax (male, human, 450 mg): 2550 ng/mL
- Tmax (male, human, 450 mg): 9.2 h
- concentration at 0 h (male, human, 450 mg): 0 ng/mL
- concentration at 0.5 h (male, human, 450 mg): 107 ng/mL
- concentration at 1 h (male, human, 450 mg): 388 ng/mL
- concentration at 2 h (male, human, 450 mg): 1620 ng/mL
- concentration at 3 h (male, human, 450 mg): 1980 ng/mL
- concentration at 4 h (male, human, 450 mg): 2150 ng/mL
- concentration at 6 h (male, human, 450 mg): 2320 ng/mL
- concentration at 8 h (male, human, 450 mg): 2360 ng/mL
- concentration at 10 h (male, human, 450 mg): 2520 ng/mL
- concentration at 12 h (male, human, 450 mg): 2310 ng/mL
- concentration at 18 h (male, human, 450 mg): 1880 ng/mL
- concentration at 24 h (male, human, 450 mg): 1450 ng/mL
- concentration at […] (male, human, 450 mg): 0 ng/mL and 214 ng/mL and 752 ng/mL and 954 ng/mL
- half-life (male, human, 450 mg, t½ (Harmonic mean), single oral 450 mg DOV 21,947 HCl IR, N = 5): 16.6 h
- half-life (male, human, 450 mg, t½, single oral 450 mg DOV 21,947 HCl IR, N = 5, arithmetic mean): 23.4 h
- λz (single oral 300 mg DOV 21,947 HCl IR, Female, N = 5): 0.046^b hr^−1
- λz (single oral 300 mg DOV 21,947 HCl IR, Male, N = 5): 0.051 h⁻¹
- Percent of Dose in Urine (0-24 hr) [1]: 0.075 (0.024) Percent of Dose
- Ratio DOV 216,298/DOV 21,947 in urine (0-24 hr) [1]: 0.195 (0.092)
- Mean Amount in Urine (single oral 300 mg DOV 21,947 HCl IR, Period 0-1 hr): 0.0 µg
- Mean Amount in Urine (single oral 300 mg DOV 21,947 HCl IR, Period 1-2 hr): 2.7 µg
- Mean Amount in Urine (single oral 300 mg DOV 21,947 HCl IR, Period 2-4 hr): 52.5 µg
- Mean Amount in Urine (single oral 300 mg DOV 21,947 HCl IR, Period 4-8 hr): 56.2 µg
- Mean Amount in Urine (single oral 300 mg DOV 21,947 HCl IR, Period 8-12 hr): 34.8 µg
- Mean Amount in Urine (single oral 300 mg DOV 21,947 HCl IR, Period 12-24 hr): 47.8 µg
- Mean Amount in Urine (single oral 300 mg DOV 21,947 HCl IR, Total (0-24 hr)): 194 µg
- λz (single oral 300 mg DOV 21,947 HCl IR, mean, N = 10): 0.049^b hr^−1
- λz (single oral 450 mg DOV 21,947 HCl IR, Female, N = 5): 0.028 h⁻¹
- λz (single oral 450 mg DOV 21,947 HCl IR, Male, N = 5): 0.042 h⁻¹
- Percent of Dose in Urine (0-24 hr) [2]: 0.067 (0.035) Percent of Dose
- Ratio DOV 216,298/DOV 21,947 in urine (0-24 hr) [2]: 0.256 (0.173)
- Mean Amount in Urine (single oral 450 mg DOV 21,947 HCl IR, Period 0-1 hr): 0.0 µg
- Mean Amount in Urine (single oral 450 mg DOV 21,947 HCl IR, Period 1-2 hr): 2.1 µg
- Mean Amount in Urine (single oral 450 mg DOV 21,947 HCl IR, Period 2-4 hr): 45.2 µg
- Mean Amount in Urine (single oral 450 mg DOV 21,947 HCl IR, Period 4-8 hr): 89.3 µg
- Mean Amount in Urine (single oral 450 mg DOV 21,947 HCl IR, Period 8-12 hr): 61.2 µg
- Mean Amount in Urine (single oral 450 mg DOV 21,947 HCl IR, Period 12-24 hr): 63.5 µg
- Mean Amount in Urine (single oral 450 mg DOV 21,947 HCl IR, Total (0-24 hr)): 261 µg
- λz (single oral 450 mg DOV 21,947 HCl IR, mean, N = 10): 0.035 h⁻¹
